The values that follow come from ChEMBL document CHEMBL5260857, “Identification of specific carbonic anhydrase inhibitors via in situ click chemistry, phage-display and synthetic peptide libraries: comparison of the methods and structural study” (RSC Med Chem, 2023).

pKi: −log10 of the molar value. Where a SMILES comes first, the peptide text is derived from it. The star is where a group is joined. X2 = NS(=O)(=O)c1ccc(CCNC(=O)Cn2cc(COC(=O)*)nn2)cc1; X1 = NS(=O)(=O)c1ccc(CO/N=C/C(=O)*)cc1

For the test, the target named is Carbonic anhydrase 9 (Homo sapiens, UniProt Q16790). Nature of the test: Inhibition of human carbonic anhydrase 9 assessed as Ki by stopped-flow carbon dioxide hydration assay.
Take `CC(C)C[C@H](NC(=O)[C@H](CO)NC(=O)/C=N/OCc1ccc(S(N)(=O)=O)cc1)C(=O)N1CCC[C@H]1C(N)=O`: the pKi was 5.55.
Regarding `CC(C)C[C@@H](C(N)=O)n1cc(-c2ccc(S(N)(=O)=O)cc2)nn1`, the negative logarithm of the Ki (pKi) was 7.96.
For the molecule `NC(=O)[C@H](Cc1ccc(O)cc1)NC(=O)[C@H](Cc1ccc(O)cc1)NC(=O)[C@H](Cc1ccccc1)NC(=O)[C@H](Cc1c[nH]c2ccccc12)NC(=O)[C@H](Cc1ccccc1)NC(=O)[C@H](Cc1ccccc1)NC(=O)[C@@H](N)CCCCNC(=O)OCc1cn(CC(=O)NCCc2ccc(S(N)(=O)=O)cc2)nn1` (H-K(X2)FFWFYY-NH2), the pKi was 6.98.
With `C#Cc1ccc(S(N)(=O)=O)cc1` the figure was 6.82.
Under `CC(C)C[C@H](NC(=O)[C@H](CCC(N)=O)NC(=O)[C@H](Cc1ccc(O)cc1)NC(=O)[C@H](Cc1ccccc1)NC(=O)[C@@H](N)CCCCNC(=O)OCc1cn(CC(=O)NCCc2ccc(S(N)(=O)=O)cc2)nn1)C(=O)N[C@@H](Cc1ccc(O)cc1)C(=O)N[C@@H](Cc1ccccc1)C(N)=O` (H-K(X2)FYQLYF-NH2) stands 7.16; under `[N-]=[N+]=NCC(=O)NCCc1ccc(S(N)(=O)=O)cc1`, 5.92.
With `CC(C)C[C@H](NC(=O)[C@H](CO)NC(=O)/C=N/OCc1ccc(S(N)(=O)=O)cc1)C(=O)N1CCC[C@H]1C(=O)N[C@@H](Cc1ccccc1)C(=O)N[C@H](C(=O)N[C@H](C(=O)N[C@@H](Cc1ccc(O)cc1)C(=O)N[C@@H](CC(N)=O)C(N)=O)C(C)C)[C@@H](C)O` (X1-SLPFTVYN-NH2) the figure was 5.86.
Regarding `CC(C)C[C@H](NC(=O)[C@H](CO)NC(=O)/C=N/OCc1ccc(S(N)(=O)=O)cc1)C(=O)N1CCC[C@H]1C(=O)N[C@@H](Cc1ccccc1)C(N)=O` (X1-SLPF-NH2), the negative-log Ki (pKi) was 6.03.
Under `CC(C)C[C@H](NC(=O)[C@H](CO)NC(=O)/C=N/OCc1ccc(S(N)(=O)=O)cc1)C(N)=O` stands 5.60; under `NC(=O)[C@H](CO)NC(=O)/C=N/OCc1ccc(S(N)(=O)=O)cc1`, 5.74; under `C[C@H](NC(=O)[C@H](Cc1cnc[nH]1)NC(=O)[C@H](C)NC(=O)[C@H](CCCCN)NC(=O)[C@H](Cc1ccc(O)cc1)NC(=O)[C@@H]1CCCN1C(=O)[C@H](Cc1cnc[nH]1)NC(=O)/C=N/OCc1ccc(S(N)(=O)=O)cc1)C(=O)N[C@@H](Cc1cnc[nH]1)C(N)=O` (X1-HPYKAHAH-NH2), 6.45.
Regarding `NOCc1ccc(S(N)(=O)=O)cc1`, the negative logarithm of the Ki (pKi) is 6.07.

The pKi is the Ki on a negative log10 scale, so that one unit is a factor of ten.
